Test results from US12012404B2, “Pyrimidoheterocyclic compounds and application thereof” (D3 BIO (WUXI) CO., LTD., priority 2020, dated 2024).

How the values were obtained:
Assay type in all cases: in vitro ADME
[1] = Metabolic stability in hepatocytes, SD rats
Method: (§1) Purpose of the assay: Metabolic stabilities of assay compounds in hepatocytes of CD-1 mice, SD rats, beagle dogs, cynomolgus monkeys, and human were assayed, respectively.
(§2) Procedure of the assay: Several 96-well sample precipitation plates were prepared and named T0, T15, T30, T60, T90, T120, TO-MC, T120-MC and blank substrates, respectively. The recovery medium and incubation medium were taken out in advance and placed in a 37° C. water bath for pre-heating. Cryopreserved hepatocytes were removed from the liquid nitrogen tank and immediately immersed in a 37° C. water bath (approximately 90 seconds). After the cryopreserved hepatocytes had thawed and loosened, they were poured into a centrifuge tube containing 40 mL of recovery medium, and the tube was gently inverted to allow the cells to be resuspended in the recovery medium. The cells were centrifuged at 100×g at room temperature for 5 min, and the supernatant was removed. The hepatocytes were resuspended in an appropriate volume of incubation medium, and the cell viability was calculated by Trypan Blue staining method. 198 μL of hepatocyte suspension (0.51×10^6 cells/mL) was added to the preheated incubation plate. For the culture medium control group, 198 μL of hepatocyte-free incubation medium was added to T0-MC and T120-MC incubation plate. All incubation plates were pre-incubated in a 37° C. incubator for 10 minutes. Then 2 μL of working solutions of the assay sample and the control compound were added, respectively, and the mixture was mixed well. The incubation plate was immediately put into the shaker in the incubator, and the reaction was initiated while starting the timer. For each time point of each compound, 2 duplicate samples were prepared. The incubation conditions were 37° C., saturated humidity, and 5% CO2. In the assay system, the final concentration of the assay sample was 1 μM, the final concentration of the control sample was 3 μM, the final concentration of hepatocytes was 0.5×10^6 cells/mL, and the final concentration of the total organic solvent was 0.96%, of which the final concentration of DMSO was 0.1%. At the end of the incubation for the corresponding time point, the incubation plate was taken out, and 25 μL of a mixture of compound and control compound with cells was added to the sample plate containing 125 μL of stop solution (200 ng/mL tolbutamide and labetalol in acetonitrile). For the Blank sample plate, 25 μL of hepatocyte-free incubation medium was added directly. After sealing, all sample plates were shaken on a shaker at 600 rpm for 10 minutes, and then centrifuged at 3220×g for 20 minutes. Supernatants of the assay sample and the control sample were diluted with ultrapure water at a ratio of 1:3. All samples were mixed well and analyzed by LC/MS/MS.

[2] = tested on: plasma protein of cynomolgus monkeys; experiment: Protein binding rate by equilibrium dialysis, cynomolgus monkeys plasma; details: 2 μM, dialysis 4 hours
Method: (§3) Purpose of the assay: Protein binding rate of the assay compounds in plasma of CD-1 mice, SD rats, beagle dogs, cynomolgus monkeys and human was determined by equilibrium dialysis.
(§4) Procedure of the assay: Plasma samples with a compound concentration of 2 μM were prepared using plasma of the above five species, placed in a 96-well equilibrium dialysis device, and dialyzed with phosphate buffer solution at 37±1° C. for 4 hours. Warfarin was used as the control compound in this assay. The concentrations of the assay compounds in plasma and dialysis buffer were determined by LC-MS/MS method.

[3] = In vitro stability in liver microsomes, cynomolgus monkeys; details: 0.5 mg/mL
Method: Purpose of the assay: Metabolic stabilities of the assay compounds in liver microsomes of CD-1 mice, SD rats, beagle dogs, cynomolgus monkeys, and human were assayed, respectively.
Procedure of the assay: Two 96-well incubation plates were prepared and named T60 incubation plate and NCF60 incubation plate, respectively. 445 μL of microsomal working solutions (liver microsomal protein concentration of 0.56 mg/mL) were added to the T60 incubation plate and the NCF60 incubation plate, respectively, and then the above incubation plates were pre-incubated in a 37° C. water bath for about 10 minutes.
After the pre-incubation, 5 μL of working solutions of the assay sample or the control compound were added to the T60 incubation plate and the NCF60 incubation plate, respectively, and the mixture was mixed well. 50 μL of potassium phosphate buffer was added to each well of the NCF60 incubation plate to initiate the reaction. 180 μL of stop solution (200 ng/mL tolbutamide and 200 ng/mL labetalol in acetonitrile) and 6 uL of NADPH regeneration system working solution were added to the T0 stop plate, and 54 μL of sample was transferred from T60 incubation plate to T0 stop plate (generation of TO sample). The reaction was initiated by adding 44 μL of NADPH regeneration system working solution to each well of the T60 incubation plate. Only 54 μL of microsome working solution, 6 uL of NADPH regeneration system working solution and 180 μL of stop solution were added to the Blank plate. Therefore, in samples of the assay compound or the control compound, the final reaction concentration of compound, testosterone, diclofenac and propafenone was 1 μM, the concentration of liver microsomes was 0.5 mg/mL, and the final reaction concentrations of DMSO and acetonitrile in the reaction system were 0.01% (v/v) and 0.99% (v/v), respectively.
After an appropriate time (e.g., 5, 15, 30, 45 and 60 minutes) of incubation, 180 μL of stop solutions (200 ng/mL tolbutamide and 200 ng/mL labetalol in acetonitrile) were added to the sample wells of each stop plate, respectively. 60 μL of sample was removed from the T60 incubation plate to stop the reaction. All sample plates were shaken well and then centrifuged at 3220×g for 20 minutes. Then 80 μL of supernatant was taken out from each well, and diluted in 240 μL of pure water for liquid chromatography-tandem mass spectrometry analysis. All samples were injected and analyzed by liquid chromatography-tandem mass spectrometry.

[4] = Metabolic stability in hepatocytes, cynomolgus monkeys
Method: as §1, §2

[5] = tested on: plasma protein of CD-1 mice; experiment: Protein binding rate by equilibrium dialysis, CD-1 mice plasma; details: for Protein unbound rate: CD-1 mice plasma, 2 μM, dialysis 4 hours
Method: as §3, §4

Row | SMILES | CLint(hep) ([1]; 1 μM) [μL/min/10^6] | CLint(liver) ([1]; 1 μM) [mL/min/kg] | T1/2 ([1]; 1 μM) [min] | Protein unbound rate [2] | CLint(liver) ([3]; 1 μM) [mL/min/kg] | CLint(mic) ([3]; 1 μM) [µL/min/mg] | T1/2 ([3]; 1 μM) [min] | CLint(hep) ([4]; 1 μM) [μL/min/10^6] | CLint(liver) ([4]; 1 μM) [mL/min/kg] | T1/2 ([4]; 1 μM) [min] | Protein unbound rate [5] | Plasma protein unbound rate PPB (Unbound %) ([5]; mice, as listed in PK Table 9) [%] | half-life at 1 μM ([1]; rat, cryopreserved hepatocytes) [min] | CLint scaled at 1 μM ([1]; rat, cryopreserved hepatocytes, read-out: CLint(liver)) [mL/min/kg] | CLint scaled at 1 μM ([3]; cynomolgus monkey) [mL/min/kg] | half-life at 1 μM ([3]; cynomolgus monkey) [min] | half-life at 1 μM ([4]; cynomolgus monkey, cryopreserved hepatocytes) [min] | CLint scaled at 1 μM ([4]; cynomolgus monkey, cryopreserved hepatocytes, read-out: CLint(liver)) [mL/min/kg]
1 | C=C(F)C(=O)N1CCN(c2nc(OCC3CCCN3C)nc3c2COC(c2c(F)c(N)cc(C)c2C(F)(F)F)C3)CC1CC#N.Cl (single isomer, unassigned) [Compound 8B hydrochloride] | 7.5 | 35.0 | 185.2 | 23.9 | 80.3 | 59.5 | 23.3 | 10.2 | 36.7 | 136.1 | 12.0 | 12.0 | – | – | – | – | – | –
2 | C=C(F)C(=O)N1CCN(c2nc(OC[C@@]34CCCN3C[C@H](F)C4)nc3c2COC(c2c(F)c(N)cc(C)c2C(F)(F)F)C3)C[C@@H]1CC#N (some centres unmarked) [Compound 17] | 67.4 | – | – | 7.8 | – | 225 | – | 51.3 | – | – | 1.5 | – | 20.6 | 315 | 303 | 6.2 | 27 | 185
